# Tests used:
# [1] = test system: rat model of myocardial infarction; assay: Rat model of myocardial infarction-induced heart failure; assay type: in vivo; conditions: vs vehicle
# Method: Adult male Sprague-Dawley rats weighing 250-320 g were obtained from Animal Resources Centre, Perth, Wash., Australia. The rats were group housed in a constant temperature of 22±1° C. and a relative humidity of 50-60% under a controlled light-dark cycle of 12 hours. Rats were given access to standard laboratory rat chow and drinking water ad libitum.
# Heart failure was induced as previously described (Ruchaya et al., 2014, Exp Physiol 99, 111-122). Breifly, to induce heart failure, rats were anaesthetised with an intramuscular injection of ketamine (60 mg/kg) and medetomide hydrochloride ([…]). A left sided thoracotomy through an opening between the fourth and fifth rib was performed, the heart was exteriorised and the left anterior descending coronary artery was ligated. Anaesthesia was reversed with antipamezole hydrocholide (1 mg/kg). Penicillin (1000 U) and buprenorphine (0.05 mg/kg) was administered to aid post-operative recovery. Animals were left to recover from the surgery under a heating source. Rats were individually housed after the surgery.
# Eight weeks after myocardial infarction surgery, rats were randomly assigned to 3 groups (vehicle, H2 and B7-33), re-anaesthetised (2-3% isoflurane) and an osmotic mini-pump (model 2ML4, Alzet, Cupertino, Calif.) implanted intraperitoneally. Vehicle (saline), native H2 relaxin (0.5 mg/kg/day) or B7-33 C11.23S (0.5 mg/kg/day) was continuously administered for 28 days. At the conclusion of treatment, rats were anaesthetized (sodium pentobarbitone, 60 mg/kg i.p.) and the left ventricular end-diastolic pressure determined prior to decapitation and removal of the heart for histological analysis.
# [2] = test system: mouse model of isoproterenol (ISO) induced cardiac fibrosis; assay: Mouse model of isoproterenol-induced cardiomyopathy (cardiac fibrosis); assay type: in vivo; conditions: 129SV mice, 14 days, s.c. minipump; relative to isoproterenol treatment
# Excerpt: (§1) Seven to eight-week old male 129SV mice (which are sensitive to tissue injury and fibrosis) and age-matched female Balb/c mice (which are sensitive to changes in airway hyperresponsiveness) were used for the induction of isoproterenol-induced cardiomyopathy and ovalbumin-induced chronic allergic airways disease, respectively. 16 five week-old male C57BL/6 mice were used in the induction of prostate cancer growth. All animals were obtained from Monash Animal Services (Monash University, Clayton, Victoria, Australia) and housed under standard conditions (maintained on an 12 h light-12 h dark lighting cycle with free access to food and water) in the Department of Pharmacology Animal Room at Monash University.
# (§2) The mid zone of the male mouse heart and largest lung lobe from female Balb/c mice were fixed in 10% neutral buffered formalin for 24-48 h before being processed and embedded routinely in paraffin wax. Representative sections of tissue, 3-5 um each, were taken and stained with either picrosirius red (Samuel et al. 2011 Lab Invest 91, 675-690) for the detection of interstitial collagen or Masson's trichrome (Royce et al, 2009, Endocrinology 150, 2692-2699) for the detection of subepithelial basement membrane collagen deposition).
# (§3) Changes in picrosirius-red stained interstitial collagen or epithelial thickness and subepithelial collagen (fibrosis) around the airway lumen from Masson's trichrome-stained sections; which were all captured (at ×20 magnification) using a SPOT digital camera (Q Imaging, Burnaby, BC, Canada) and analysed with Image J 1.3 software (National Institutes of Health, Bethesda, Md.). Four to five fields per mid zone of the heart or 4-5 airways (of 150-350 μm in diameter) per mouse were assessed. Epithelial thickness and subepithelial collagen regions were traced with a digital pen and the thickness of each region calculated by the imaging software. Results were expressed as mean thickness ([…]) of the 4-5 airways sampled.
# The apical region of the heart or second largest lung lobe from each mouse was treated as described previously (Samuel C S, et at., 2003, FASEB J 17, 121-123; Royce et at. 2009, Endocrinology 150, 2692-2699) for the determination of hydroxyproline content. Hydroxyproline values were estimated based on a standard curve constructed with serial dilutions of a 0.1 mg/mL stock of trans-4-hydroxyproline-L-proline (Sigma-Aldrich). Hydroxyproline values were then converted to collagen content as detailed previously (Samuel CS, et al. 2004. Endocrinology 145, 4125-4133) and, in turn, divided by the dry weight of each corresponding left ventricular or lung tissue assessed to yield collagen concentration (a measure of fibrosis). […]
# [3] = test system: mouse model of OVA-induced chronic allergic airway disease; assay: Mouse model of OVA-induced chronic allergic airway disease; assay type: in vivo; conditions: Balb/c mice
# Excerpt: as §1
# Twenty-four hours after the last vehicle/drug administration, methacholine-induced airway reactivity was assessed by invasive plethysmography as described before (Locke et al. 2007, Am J Respir Mol Biol 36, 625-632; Royce et al. 2009, Endocrinology 150, 2692-2699). Mice were anaesthetized intraperitoneally with 200 μg/g ketamine and 10 μg/g xylazine. Tracheotomy was performed using an 18-gauge tracheotomy tube and jugular vein cannulated with a 0.61 9 0.28 mm polyethylene tube (Microtube Extrusions, North Rocks, NSW, Australia), Mice were then placed in a plethysmograph chamber (Buxco Research Systems, Wilmington, N.C., USA) where increasing concentrations of acetyl-β-methacholine (from 31.25 μg/kg to 500 μg/kg) were delivered intravenously in five doses. After every dose, airway resistance and compliance were measured (Biosystem XA version 2.7.9; Buxco Electronics Inc, Wilmington, N.C., USA). The change in airway resistance calculated by the maximal resistance after each dose minus baseline resistance (phosphate buffered saline alone) was plotted against each dose of methacholine evaluated.
# as §2, §3
# The apical region of the heart or second largest lung lobe from each mouse was treated as described previously (Samuel C S, et at., 2003, FASEB J 17, 121-123; Royce et at. 2009, Endocrinology 150, 2692-2699) for the determination of hydroxyproline content. Hydroxyproline values were estimated based on a standard curve constructed with serial dilutions of a 0.1 mg/mL stock of trans-4-hydroxyproline-L-proline (Sigma-Aldrich). Hydroxyproline values were then converted to collagen content as detailed previously (Samuel CS, et al. 2004. Endocrinology 145, 4125-4133) and, in turn, divided by the dry weight of each corresponding left ventricular or lung tissue assessed to yield collagen concentration (a measure of fibrosis).
# The inventors also tested the fibrosis preventing activity of B7-33 C11.23S in a model of chronic allergic airway disease (AAD). […]
# [4] = test system: RM1 mouse prostate tumour cells; assay: Prostate tumour growth after injection of RM1 cells into prostates of C57BL/6 mice; assay type: in vivo; conditions: day 10 after RM1 cells, s.c. mini-pump from day 2, H2 relaxin 0.15, B7-33 C11.23S 0.075 mg/kg/day, vs untreated
# Excerpt: as §1
# H2 relaxin can induce prostate and other tumour growth. To measure the effect of B7-33 C11.23S on tumour growth, 16 five week-old male C57BL/6 mice (obtained from Monash Animal Services) were injected with 5000 RM1 (mouse prostate tumor) cells into their prostates to induce tumor growth. One sub-group of mice n=5) was left untreated until day 10 post-RM1 cell administration. […]
# [5] = dose printed as 0.5 mg/mg/day; Samuel et al. 2003; cited from earlier work
# [6] = Solubility of relaxin B chain peptides in aqueous solution; conditions: aqueous solution
substance,measurement,setting,value
H2 relaxin: Native human relaxin-2: heterodimer of A chain (24 residues) and B1-29 B chain with three disulfide bonds,Percentage of collagen in the interstitial area of the left ventricle,[1]; 0.5 mg/kg/day i.p. mini-pump for 28 days from 8 weeks after MI,significant reduction
same,Left ventricular end-diastolic pressure (LVEDP),[1]; 12 weeks after myocardial infarction,reduced
same,Percentage of interstitial collagen in the left ventricle (picrosirius red),[2],significantly reduced
same,Total left ventricular collagen concentration (hydroxyproline analysis),[2],significantly reduced
same,Airway hyper-responsiveness (change in airway resistance to methacholine),"[3]; OVA-induced increase, invasive plethysmography, FIG. 8D",attenuated
same,Mean airway epithelial thickness,"[3]; compared to OVA treatment, FIG. 8B",significantly reduced
same,Total lung collagen content (hydroxyproline analysis),"[3]; relative to OVA treatment, FIG. 8C",normalised
same,Prostate tumour size,[4],significantly increased tumour size
same,Circulating levels,[5],20 to 40 ng/mL
same,Aqueous solubility (in words),[6],very soluble
